Experimental data reported in patent US12281122B1, “PI3K inhibitors” (Cogent Biosciences, Inc., priority 2023, dated 2025).

Assays:
[1] = test system: T47D (PI3Kα-H1047R) cell line; assay: HTRF phospho-AKT(S473) cell assay in T47D cells; type: cell-based, human
Method: (§1) Compounds in the present disclosure were tested in a cell based HTRF phospho-AKT(S473) (CisBio/Revvity) assay in human breast cancer cell lines as a measurement of PIK3CA activity through measuring AKT, a downstream effector. The activity of mutant PI3Kα-H1047R and PI3Kα-Wild Type was measured in the T47D (PI3Kα-H1047R) and SKBR3 (PI3Kα-Wild Type) cell lines, respectively. T47D cells were plated at 20,000 cells per well in 50 μL in RPMI medium supplemented with 10% FBS and 0.2 units/mL insulin, in 384 well plates. SKBR3 cells were plated at 25,000 cells per well in 50 μL in McCoy's 5A medium supplemented with 10% FBS, in 384 well plates. Cells were plated using a Combi Multidrop reagent dispenser (ThermoFisher), and placed in 5% CO2, 37° C. incubator overnight to adhere.
(§2) The next day, cells were treated with either compounds or vehicle (DMSO) in a 12-fold dose response curve of 1:3 dilutions, with 5 μM and 10 μM as the top concentrations for the T47D and SKBR3 cell lines, respectively. Compound treatment was facilitated via the D300e digital dispenser (Tecan), with a maximum DMSO concentration of 0.5%. Following compound addition, cell plates were incubated for 2 hours in 5% CO2, 37° C. incubator. The SKBR3 cells were stimulated and treated with 70 ng/ml PDGF-BB ligand (ThermoFisher) for the remaining 15 minutes of the incubation. Following compound incubation, compound and media was aspirated from the cells and 25 μL of supplemented lysis buffer was added per well, and incubated for 45 minutes at room temperature, shaking at 600 rpm. Next, 16 μL of cell lysate was added to a 384 well low volume ProxyPlate (Perkin Elmer/Revvity) mixed with 4 μL of HTRF antibodies (1:1 Eu Cryptate+d2 Cryptate). HTRF supplemented lysis buffer and antibody reagents were used from the phosphor-AKT(S473) HTRF assay kit (CisBio/Revvity), following manufacturers protocol recommendations. Plates were sealed and incubated at 4° C. overnight.
(§3) The following day, plates were centrifuged for 1 minute at 1000 rpm, and read on a PHERAstar plate reader. IC50 values were calculated using Spotfire software.

[2] = test system: SKBR3 (PI3Kα-Wild Type) cell line; assay: HTRF phospho-AKT(S473) cell assay in SKBR3 cells; type: cell-based, human
Method: as §1, §2, §3

[3] = Homo sapiens; HTRF phospho-AKT(S473), T47D (PI3Kα-H1047R) cells, 2 hours compound incubation
[4] = Homo sapiens, SK-BR-3; HTRF phospho-AKT(S473), SKBR3 (PI3Kα-Wild Type) cells, 2 hours compound incubation, PDGF-BB stimulated
[5] = Homo sapiens; T47D (PI3Kα-H1047R) cells, HTRF phospho-AKT(S473), 2 hours compound incubation
[6] = Homo sapiens, SK-BR-3; SKBR3 (PI3Kα-Wild Type) cells, HTRF phospho-AKT(S473), 2 hours compound incubation, PDGF-BB stimulated

| Compound | IC50 [1, 3] | IC50 [2, 4] | IC50 [1, 5] | IC50 [2, 6] | also measured |
| --- | --- | --- | --- | --- | --- |
| Cc1cc([C@@H](C)Nc2ccc(Cl)nc2C(=O)NS(C)(=O)=O)c2nc(N3C[C@@H]4[C@H](C3)[C@H]4c3cc(C)[nH]n3)n(C)c(=O)c2c1 [Compound 510, 6-chloro-3-(((R)-1-(3,6-dimethyl-2-((1R,5S,6R)-6-(5-methyl-1H-pyrazol-3-yl)-3-azabicyclo[3.1.0]hexan-3-yl)-4-oxo-3,4-dihydroquinazolin-8-yl)ethyl)amino)-N-(methylsulfonyl) picolinamide] | 250 to 500 nM | 1000 to 5000 nM | – | – | – |
| Cc1cc([C@@H](C)Nc2ccc(Cl)nc2C(=O)NS(C)(=O)=O)c2nc(N3CCC[C@H](c4cnc(C)cn4)C3)n(C)c(=O)c2c1 (relative stereo) [Compound 585, 6-chloro-3-(((R)-1-(3,6-dimethyl-2-((R*)-3-(5-methylpyrazin-2-yl)piperidin-1-yl)-4-oxo-3,4-dihydroquinazolin-8-yl)ethyl)amino)-N-(methylsulfonyl) picolinamide] | 250 to 500 nM | ≥ 5000 nM | – | – | – |
| Cc1cc([C@@H](C)Nc2ccc(Cl)nc2C(=O)NS(C)(=O)=O)c2nc(N3CCC(n4ncc5cc(N)ccc54)CC3)n(C)c(=O)c2c1 [Compound 278, (R)-3-((1-(2-(4-(5-amino-1H-indazol-1-yl)piperidin-1-yl)-3,6-dimethyl-4-oxo-3,4-dihydroquinazolin-8-yl)ethyl)amino)-6-chloro-N-(methylsulfonyl) picolinamide] | – | – | < 250 nM | 1000 to 5000 nM | – |
| Cc1cc([C@@H](C)Nc2ccc(Cl)nc2C(=O)NS(C)(=O)=O)c2nc(N3Cc4cn(-c5ccc(C#N)cc5)nc4C3)n(C)c(=O)c2c1 [Compound 239, (R)-6-chloro-3-((1-(2-(2-(4-cyanophenyl)-2,6-dihydropyrrolo[3,4-c]pyrazol-5(4H)-yl)-3,6-dimethyl-4-oxo-3,4-dihydroquinazolin-8-yl)ethyl)amino)-N-(methylsulfonyl) picolinamide] | – | – | < 250 nM | 1000 to 5000 nM | – |
| Cc1cc([C@@H](C)Nc2ccc(Cl)nc2C(=O)NS(C)(=O)=O)c2nc(N3CCC(c4cc5ccccn5n4)CC3)n(C)c(=O)c2c1 [Compound 692, (R)-6-chloro-3-((1-(3,6-dimethyl-4-oxo-2-(4-(pyrazolo[1,5-a]pyridin-2-yl)piperidin-1-yl)-3,4-dihydroquinazolin-8-yl)ethyl)amino)-N-(methylsulfonyl) picolinamide] | 250 to 500 nM | ≥ 5000 nM | – | – | – |
| COc1cc([C@H]2[C@@H]3CN(c4nc5c([C@@H](C)Nc6ccc(Cl)nc6C(=O)NS(C)(=O)=O)cc(C)cc5c(=O)n4C)C[C@@H]32)n(C)n1 [Compound 519, 6-chloro-3-(((R)-1-(2-((1R,5S,6R)-6-(3-methoxy-1-methyl-1H-pyrazol-5-yl)-3-azabicyclo[3.1.0]hexan-3-yl)-3,6-dimethyl-4-oxo-3,4-dihydroquinazolin-8-yl)ethyl)amino)-N-(methylsulfonyl) picolinamide] | < 250 nM | 1000 to 5000 nM | – | – | – |
| Cc1cc([C@@H](C)Nc2ccc(Cl)nc2C(=O)NS(C)(=O)=O)c2nc(C3CCN(c4nn(C)cc4F)CC3)n(C)c(=O)c2c1 [Compound 429, (R)-6-chloro-3-((1-(2-(1-(4-fluoro-1-methyl-1H-pyrazol-3-yl)piperidin-4-yl)-3,6-dimethyl-4-oxo-3,4-dihydroquinazolin-8-yl)ethyl)amino)-N-(methylsulfonyl) picolinamide] | – | – | 250 to 500 nM | ≥ 5000 nM | – |
| Cc1cc([C@@H](C)Nc2ccc(Cl)nc2C(=O)NS(C)(=O)=O)c2nc(N3CCC(c4nc(C(F)F)n(C)n4)CC3)n(C)c(=O)c2c1 [Compound 434, (R)-6-chloro-3-((1-(2-(4-(5-(difluoromethyl)-1-methyl-1H-1,2,4-triazol-3-yl)piperidin-1-yl)-3,6-dimethyl-4-oxo-3,4-dihydroquinazolin-8-yl)ethyl)amino)-N-(methylsulfonyl) picolinamide] | – | – | 500 to 1000 nM | ≥ 5000 nM | – |
| C[C@@H](Nc1ccc(Cl)nc1C(=O)NS(C)(=O)=O)c1cc(F)cc2c(=O)n(C)c(N3CCC(c4ccn(C)n4)CC3)nc12 [Compound 366, (R)-6-chloro-3-((1-(6-fluoro-3-methyl-2-(4-(1-methyl-1H-pyrazol-3-yl)piperidin-1-yl)-4-oxo-3,4-dihydroquinazolin-8-yl)ethyl)amino)-N-(methylsulfonyl) picolinamide] | – | – | < 250 nM | 1000 to 5000 nM | – |
| Cc1cc([C@@H](C)Nc2ccc(Cl)nc2C(=O)NS(C)(=O)=O)c2nc(N3CCC(c4ccnc(C)n4)CC3)n(C)c(=O)c2c1 [Compound 260, (R)-6-chloro-3-((1-(3,6-dimethyl-2-(4-(2-methylpyrimidin-4-yl)piperidin-1-yl)-4-oxo-3,4-dihydroquinazolin-8-yl)ethyl)amino)-N-(methylsulfonyl) picolinamide] | – | – | < 250 nM | 1000 to 5000 nM | – |
| Cc1cc([C@@H](C)Nc2ccc(Cl)nc2C(=O)NS(C)(=O)=O)c2nc(N3C[C@@H]4[C@H](C3)[C@H]4c3n[nH]cc3F)n(C)c(=O)c2c1 [Compound 454, 6-chloro-3-(((R)-1-(2-((1R,5S,6R)-6-(4-fluoro-1H-pyrazol-3-yl)-3-azabicyclo[3.1.0]hexan-3-yl)-3,6-dimethyl-4-oxo-3,4-dihydroquinazolin-8-yl)ethyl)amino)-N-(methylsulfonyl) picolinamide] | < 250 nM | 1000 to 5000 nM | – | – | – |
| CO[C@H]1CCC2(CCN(c3nc4c([C@@H](C)Nc5ccc(Cl)nc5C(=O)NS(C)(=O)=O)cc(C)cc4c(=O)n3C)CC2)OC1 (mixture of isomers) [Compound 721, 6-chloro-3-(((R)-1-(2-((RS)-3-methoxy-1-oxa-9-azaspiro[5.5]undecan-9-yl)-3,6-dimethyl-4-oxo-3,4-dihydroquinazolin-8-yl)ethyl)amino)-N-(methylsulfonyl) picolinamide] | 250 to 500 nM | ≥ 5000 nM | – | – | – |
| Cc1cc([C@@H](C)Nc2ccc(Cl)nc2C(=O)NS(C)(=O)=O)c2nc(N3CCC(c4cccnc4C)CC3)n(C)c(=O)c2c1 [Compound 437, (R)-6-chloro-3-((1-(3,6-dimethyl-2-(4-(2-methylpyridin-3-yl)piperidin-1-yl)-4-oxo-3,4-dihydroquinazolin-8-yl)ethyl)amino)-N-(methylsulfonyl) picolinamide] | – | – | < 250 nM | 1000 to 5000 nM | – |
| Cc1cc([C@@H](C)Nc2ccc(Cl)nc2C(=O)NS(C)(=O)=O)c2nc(N3C[C@@H]4[C@H](C3)[C@H]4c3cc[nH]n3)n(C)c(=O)c2c1 [Compound 699, 3-(((R)-1-(2-((1R,5S,6R)-6-(1H-pyrazol-3-yl)-3-azabicyclo[3.1.0]hexan-3-yl)-3,6-dimethyl-4-oxo-3,4-dihydroquinazolin-8-yl)ethyl)amino)-6-chloro-N-(methylsulfonyl) picolinamide] | 250 to 500 nM | 1000 to 5000 nM | – | – | – |
| Cc1cc([C@@H](C)Nc2ccc(Cl)nc2C(=O)NS(C)(=O)=O)c2nc(N3CCN(c4cnc(C)c(F)c4)CC3)n(C)c(=O)c2c1 [Compound 652, (R)-6-chloro-3-((1-(2-(4-(5-fluoro-6-methylpyridin-3-yl)piperazin-1-yl)-3,6-dimethyl-4-oxo-3,4-dihydroquinazolin-8-yl)ethyl)amino)-N-(methylsulfonyl) picolinamide] | 250 to 500 nM | 1000 to 5000 nM | – | – | – |
| Cc1cc([C@@H](C)Nc2ccc(Cl)nc2C(=O)NS(C)(=O)=O)c2nc(N3CCCC(c4ncc(Cl)cn4)C3)n(C)c(=O)c2c1 (stereo in doubt) [Compound 587, 6-chloro-3-(((R)-1-(2-((R*)-3-(5-chloropyrimidin-2-yl)piperidin-1-yl)-3,6-dimethyl-4-oxo-3,4-dihydroquinazolin-8-yl)ethyl)amino)-N-(methylsulfonyl) picolinamide] | – | – | – | – | IC50 ([1]; HTRF phospho-AKT(S473), T47D (PI3Kα-H1047R) cells, 2 hours compound incubation): 250 to 500 nM; IC50 ([2]; HTRF phospho-AKT(S473), SKBR3 (PI3Kα-Wild Type) cells, 2 hours compound incubation, PDGF-BB stimulated): ≥ 5000 nM |
| Cc1cc([C@@H](C)Nc2ccc(Cl)nc2C(=O)NS(C)(=O)=O)c2nc(N3CCC(c4nc(C)nn4C(F)F)CC3)n(C)c(=O)c2c1 [Compound 724, (R)-6-chloro-3-((1-(2-(4-(1-(difluoromethyl)-3-methyl-1H-1,2,4-triazol-5-yl)piperidin-1-yl)-3,6-dimethyl-4-oxo-3,4-dihydroquinazolin-8-yl)ethyl)amino)-N-(methylsulfonyl) picolinamide] | 250 to 500 nM | 1000 to 5000 nM | – | – | – |
